In patent publication US10768185B2, “Tenofovir detection assay” (TRUSTEES OF BOSTON UNIVERSITY, priority 2017, dated 2020):
Counter-ions that a name gives are not always drawn.

Tests used:
[1] = system: anti-TFV polyclonal antibody; test: Immunoprecipitation of TFV by anti-TFV antibody, LC-MS readout; type: binding, rabbit; conditions: mixture of 50 μg/mL TFV and 1 mg/mL AMP (AMP 20× higher), anti-TFV serum, Protein G beads
Procedure: LC-MS measurements were taken on an Agilent 1100 series LC/MSD with a Cortecs C18 column (90 Å, 2.7 μm, 4.6 mm×150 mm) from Waters (Milford, Mass.). Samples were dissolved in a solution of 9754, 0.6% trifluoroacetic acid in water and 254, methanol. 204, of sample was injected into a gradient mobile phase outlined in Table 1 at a flowrate of 0.6 mL/min into the column equilibrated at 45° C. and passed through the mass spectrometer set for positive polarity electrospray ionization (ESI+) at a range of 100-1500 m/z.
Two samples were prepared containing a mixture of 1004, of 50 μg/mL TFV and 100 μL of 1 mg/mL AMP. To one tube 375 μL of anti-TFV serum (+IP) was added and to the other 375 μL of PBS (−IP). The samples were incubated while rotating at 4° C. overnight. 3004, of Protein G bead suspension was added to the samples and further incubated at 4° C. for 1 hour. The samples were spun down for 1 minute at 3000 rpm and decanted. The supernatant from the (−IP) sample (−IPsup) was set aside. The beads were then washed and decanted four times with yeast lysis buffer (50 mM HEPES pH 7.6, 1 mM EDTA, 1% Triton X-100, 0.1% sodium deoxycholate, 140 mM NaCl), with the third wash being with a high salt yeast lysis buffer (500 mM NaCl). The beads were then heat eluted for 5 minutes at 95° C. into 100 μL of TE buffer. […]

[2] = system: anti-TFV polyclonal antibody; test: Competitive dot blot assay; type: binding, rabbit; conditions: spiked urine, HRP-coupled secondary antibody
Procedure: Nitrocellulose strips were cut to dimensions of approximately 7 mm by 25 mm. BSA-TFV solution in PBS was diluted down to either 1 μg/mL or 100 ng/mL representing about a 1000-fold or 10,000-fold dilution factor. The strips were then spotted 3 times with luL of diluted BSA-TFV and allowed to dry. The strips were blocked with 5% milk in tris-buffered saline with Tween 20 (TBS-T) for 30 minutes and washed three times with TBS-T. Samples of TFV were prepared at varying concentrations between 1 ng/mL and 1 μg/mL in either TBS-T or human urine alongside a no TFV control sample. Anti-TFV polyclonal antibody from raw serum (e.g., unpurified) was added to the TFV samples at a dilution of 1:50,000 and incubated at room temperature while rotating for at least 1 hour. The strips were incubated in the spiked urine or TBS-T solutions of TFV and anti-TFV polyclonal antibody at room temperature while rotating for 1 hour and washed three times with TBS-T followed by a high-salt (500 mM NaCl) TBS-T wash and a low-salt (50 mM NaCl) TBS-T wash. The strips were then incubated in a 1:8000 dilution in TBS-T of anti-Rabbit antibody conjugated to HRP at room temperature while rotating for 1 hour and washed three times with TBS-T. The HRP was then visualized by pico chemiluminescent substrate and chemiluminescent photographs were taken by a VersaDoc Imaging Model 4000 system from BioRad.

[3] = cited from earlier work
[4] = system: anti-TFV antibody conjugated to gold nanoparticles; test: Lateral flow assay specificity test; type: binding, rabbit; conditions: 100 μg/mL in urine
Procedure: (§1) Hi-Flow Plus HF180 nitrocellulose sheets were laser cut into lateral flow strips and chromatography paper was adhered to the end of the strips as a waste reservoir using autoclave tape. Samples of TFV were prepared at varying concentrations between 10 ng/mL and 100 μg/mL in urine alongside a no TFV control sample. For each sample, 1 μL of conjugated gold nanoparticles was added to 244, of PBS and 804, of sample was added. The mixture was allowed to incubate at room temperature on a rotator for at least 30 minutes. 0.3 μL of anti-rabbit antibody was spotted on the strips as a control spot. 0.3 μL of 2.5 μg/mL BSA-TFV was spotted as the test spot on the strips upstream of the control spot. The spots were allowed to dry and another 0.3 μL of BSA-TFV was spotted on top of the test spot. After incubation, concentrated TBS-T was added to each sample such that the final Tween 20 concentration was 0.05%. One end of each of the lateral flow strips was dipped vertically into the sample tubes such that the solution ran up the nitrocellulose strip and into the waste reservoir via capillary action. The strips were incubated in the solution for 25-30 minutes before being photographed with a Nikon DS-Ri2 camera and analyzed via ImageJ.
The protocol is the same as the competitive lateral flow assay. Solutions of TFV, AZT, Abcavir, AMP, and adenine were made at concentrations of 100 μg/mL alongside a urine only control sample.

[5] = system: anti-TFV antibody conjugated to gold nanoparticles; test: Competitive gold nanoparticle lateral flow assay, sensitivity test; type: binding, rabbit
Procedure: as §1
There was a statistically significant difference between groups as determined by one-way ANOVA (F(5,24)=15.0, p=1.02×10^−6).

[6] = cited from earlier work; remark: listed apart in the source

C[C@H](Cn1cnc2c(N)ncnc21)OCP(=O)(O)O [TFV, Tenofovir]
presence in immunoprecipitation product by LC-MS [1]: presence | lower limit of detection [2]: 35 nM | concentration of TFV in urine ([3]; 300 mg ingested only once, after 24-72 hours): 1000 to 10000 ng/mL | urinary concentration of TFV relative to plasma concentration ([3]; patients on TFV regimens): over 100 × | staining of test area (no staining = positive for TFV) [4]: no staining | test spot intensity versus no-TFV control (ANOVA, Tukey post hoc) ([5]; 1 μg/mL, 10 μg/mL and 100 μg/mL TFV in urine, N=5): statistically significant differences | lower limit of detection / sensitivity ([5]; spiked urine, preliminary): 1 µg/mL

Nc1nc(NC2CC2)c2ncn([C@H]3C=C[C@@H](CO)C3)c2n1 [Abcavir]
staining of test area (no staining = positive for TFV) [4]: staining in both the test area and control area

CC(C)OC(=O)[C@H](C)N[P@](=O)(CO[C@H](C)Cn1cnc2c(N)ncnc21)Oc1ccccc1 [TAF, tenofovir alafenamide]
decrease in TFV plasma concentrations ([3]; TAF 25 mg per day, compared with TDF): ~10 ×

Nc1ncnc2c1ncn2[C@@H]1O[C@H](COP(=O)(O)O)[C@@H](O)[C@H]1O [AMP, adenosine monophosphate]
presence in immunoprecipitation product by LC-MS [1]: absence | staining of test area (no staining = positive for TFV) [4]: staining in both the test area and control area

CC(C)OC(=O)OCOP(=O)(CO[C@H](C)Cn1cnc2c(N)ncnc21)OCOC(=O)OC(C)C [TDF, tenofovir disoproxil fumarate]
urine concentration of TFV ([3]; patient taking 300 mg TDF daily): around 23 μg/mL

Nc1ncnc2nc[nH]c12 [Adenine, adenine]
staining of test area (no staining = positive for TFV) [4]: staining in both the test area and control area

Cc1cn([C@H]2C[C@H](N=[N+]=[N-])[C@@H](CO)O2)c(=O)[nH]c1=O [AZT]
staining of test area (no staining = positive for TFV) [4]: staining in both the test area and control area

NNC(=O)c1ccncc1 [INH, isoniazid]
urinary concentrations of INA ([6]; typical dose 250 mg/day for a 50 kg patient): ~100 µg/mL | oral dose recovered in the urine as INA ([6]; within 24 hr): 30-40%
